Results: the supplement of paper PMC10307832

Key:
Test in all cases: relative viability (nuclei count vs DMSO), 5 days (fraction); higher = more cells survive
Serdemetan + Olaparib = compound: c1ccc2c(CCNc3ccc(Nc4ccncc4)cc3)c[nH]c2c1 [Serdemetan] + O=C(c1cc(Cc2n[nH]c(=O)c3ccccc23)ccc1F)N1CCN(C(=O)C2CC2)CC1 [Olaparib] (partner 8 µM)
In short: (§1)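 Lung cancer cell lines, seeded in 1536-well plates, were treated the following day by pin tool with a single drug or with five library-drug doses (not always all listed) in √10 steps on top of a fixed anchor-drug dose. Cells were fixed and nuclei stained in one step after 5 days, and nuclei were counted. Relative viability is the nuclei count for treated wells divided by that for vehicle wells, reported as medians of duplicate plates.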

Serdemetan + Crizotinib = compound: c1ccc2c(CCNc3ccc(Nc4ccncc4)cc3)c[nH]c2c1 [Serdemetan] + C[C@@H](Oc1cc(-c2cnn(C3CCNCC3)c2)cnc1N)c1c(Cl)ccc(F)c1Cl [Crizotinib] (partner 1 µM)
In short: as §1

Selisistat + Linsitinib = compound: C1CC(C2=C(C1)C3=C(N2)C=CC(=C3)Cl)C(=O)N [Selisistat] + C[C@]1(O)C[C@@H](c2nc(-c3ccc4ccc(-c5ccccc5)nc4c3)c3c(N)nccn32)C1 [Linsitinib] (partner 1 µM)
In short: as §1

Serdemetan + Pemetrexed = compound: c1ccc2c(CCNc3ccc(Nc4ccncc4)cc3)c[nH]c2c1 [Serdemetan] + Nc1nc2[nH]cc(CCc3ccc(C(=O)N[C@@H](CCC(=O)O)C(=O)O)cc3)c2c(=O)[nH]1 [Pemetrexed] (partner 0.2 µM)
In short: as §1

| Cell Line | relative viability (Serdemetan + Olaparib; first compound 0.04 µM) | relative viability (Serdemetan + Olaparib; first compound 0.1265 µM) | relative viability (Serdemetan + Olaparib; first compound 0.4 µM) | relative viability (Serdemetan + Olaparib; first compound 1.265 µM) | relative viability (Serdemetan + Olaparib; first compound 4 µM) | relative viability (Serdemetan + Crizotinib; first compound 0.04 µM) | relative viability (Serdemetan + Crizotinib; first compound 0.1265 µM) | relative viability (Serdemetan + Crizotinib; first compound 0.4 µM) | relative viability (Serdemetan + Crizotinib; first compound 1.265 µM) | relative viability (Serdemetan + Crizotinib; first compound 4 µM) | relative viability (Selisistat + Linsitinib; first compound 0.4 µM) | relative viability (Selisistat + Linsitinib; first compound 1.265 µM) | relative viability (Selisistat + Linsitinib; first compound 4 µM) | relative viability (Selisistat + Linsitinib; first compound 12.65 µM) | relative viability (Selisistat + Linsitinib; first compound 40 µM) | relative viability (Serdemetan + Pemetrexed; first compound 0.04 µM) | relative viability (Serdemetan + Pemetrexed; first compound 0.1265 µM) | relative viability (Serdemetan + Pemetrexed; first compound 0.4 µM) | relative viability (Serdemetan + Pemetrexed; first compound 1.265 µM) | relative viability (Serdemetan + Pemetrexed; first compound 4 µM) |
| --- | --- | --- | --- | --- | --- | --- | --- | --- | --- | --- | --- | --- | --- | --- | --- | --- | --- | --- | --- | --- |
| NCI-H2126 | 0.885 | 0.914 | 0.855 | 0.724 | 0.751 | 1.02 | 1.07 | 0.944 | 0.734 | 1 | 0.807 | 0.663 | 0.686 | 0.758 | 0.804 | 0.671 | 0.707 | 0.579 | 0.601 | 0.78 |
| EMC-BAC-2 | 0.447 | 0.446 | 0.473 | 0.338 | 0.403 | 0.727 | 0.778 | 0.694 | 0.5 | 0.39 | 0.87 | 0.787 | 0.777 | 0.753 | 0.813 | 0.457 | 0.446 | 0.437 | 0.346 | 0.4 |
| NCI-H1993 | 0.982 | 0.969 | 1.18 | 1.01 | 0.778 | 0.951 | 0.944 | 0.86 | – | 0.734 | 0.719 | 0.72 | – | 0.648 | 0.773 | 0.577 | 0.581 | 0.591 | 0.589 | 0.546 |
| NCI-H520 | 0.335 | 0.347 | 0.27 | 0.199 | 0.26 | 0.692 | 0.778 | 0.686 | 0.687 | 0.641 | 0.823 | 0.954 | 0.982 | 0.967 | 0.969 | 0.712 | 0.68 | 0.753 | 0.674 | 0.542 |
